Data: publication PMC9500858 (International Journal of Molecular Sciences, 2022)

Columns and labels:
[1] = 0.005 nmol/rat at 120 min and 0.02 nmol/rat at 30, 60 and 120 min; cited from earlier work
Excerpt: Since hybrid compounds have gained attention due to their potent multifunctional behavior with a more favorable profile in terms of possible side effects, much work devoted to such compounds can be found. PK20 and [Ile^9]PK20, which are hybrid structures encompassing both opioid and neurotensin pharmacophores, although modified, were designed and synthesized to reduce pain.

[2] = system: CA1 region of the hippocampus; experiment: Excitotoxic injury in organotypic hippocampal slice cultures subjected to NMDA; format: cell-based, Rat; details: administered simultaneously with NMDA, data not published

Substance: HELM PEPTIDE1{[Cc1cc(O)cc(C)c1C[C@H](N)C(=O)[*:2]].[dK].F.F.K.K.P.F.I.L}$$$$V2.0 (N-terminus assumed; SMILES CC[C@H](C)[C@H](NC(=O)[C@H](Cc1ccccc1)NC(=O)[C@@H]1CCCN1C(=O)[C@H](CCCCN)NC(=O)[C@H](CCCCN)NC(=O)[C@H](Cc1ccccc1)NC(=O)[C@H](Cc1ccccc1)NC(=O)[C@@H](CCCCN)NC(=O)[C@@H](N)Cc1c(C)cc(O)cc1C)C(=O)N[C@@H](CC(C)C)C(=O)O) [[Ile^9]PK20, analogue of PK20 with Ile instead of Tle at position 9]
- induced analgesia compared to PK20 [1]: significantly lower
- extent of damage to the CA1 region of the hippocampus ([2]; dose 25 ng/mL): 8.53% ± 2.65
- extent of damage to the CA1 region of the hippocampus ([2]; dose 50 ng/mL): 19.04% ± 8.52
- extent of damage to the CA1 region of the hippocampus ([2]; dose 100 ng/mL): 8.62% ± 0.62
